Data from ChEMBL document CHEMBL3352542, “Synthesis, biological evaluation and molecular modeling study of 2-(1,3,4-thiadiazolyl-thio and 4-methyl-thiazolyl-thio)-quinazolin-4-ones as a new class of DHFR inhibitors” (Bioorg Med Chem Lett, 2014).
Calls of active or inactive are those of the source. The rule behind the calls is not given here.

What was measured:
MOLT-4 = test: (§1) Growth inhibition of human MOLT4 cells at 10 uM after 48 hrs; format: functional
A549 = test: Growth inhibition of human A549 cells at 10 uM after 48 hrs; format: functional
K562 = test: Growth inhibition of human K562 cells at 10 uM after 48 hrs; format: functional
Dihydrofolate reductase = biological target: T1, Dihydrofolate reductase (Bos taurus, UniProt P00376); test: Inhibition of bovine liver DHFR
T1 sequence (P00376 whole entry): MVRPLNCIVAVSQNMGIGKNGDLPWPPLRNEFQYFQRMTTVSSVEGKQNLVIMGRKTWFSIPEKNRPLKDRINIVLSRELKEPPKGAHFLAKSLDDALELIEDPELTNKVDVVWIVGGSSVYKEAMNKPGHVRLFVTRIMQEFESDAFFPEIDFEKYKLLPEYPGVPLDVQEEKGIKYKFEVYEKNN

786-0 = test: Growth inhibition of human 786-0 cells at 10 uM after 48 hrs; format: functional
MCF7 = test: Growth inhibition of human MCF7 cells at 10 uM after 48 hrs; format: functional
U-251 = test: Growth inhibition of human U251 cells at 10 uM after 48 hrs; format: functional
RPMI-8226 = test: (§2) Growth inhibition of human RPMI8226 cells at 10 uM after 48 hrs; format: functional
HCT-116 = test: (§3) Growth inhibition of human HCT116 cells at 10 uM after 48 hrs; format: functional
KM12 = test: Growth inhibition of human KM12 cells at 10 uM after 48 hrs; format: functional
MDA-MB-231 = test: Growth inhibition of human MDA-MB-231 cells at 10 uM after 48 hrs; format: functional
HL-60(TB) = test: Growth inhibition of human HL-60(TB) cells at 10 uM after 48 hrs; format: functional
SK-MEL-5 = test: Growth inhibition of human SK-MEL-5 cells at 10 uM after 48 hrs; format: functional
HCT-15 = test: (§4) Growth inhibition of human HCT15 cells at 10 uM after 48 hrs; format: functional
NCI-H522 = test: Growth inhibition of human NCI-H522 cells at 10 uM after 48 hrs; format: functional
HOP-62 = test: Growth inhibition of human HOP62 cells at 10 uM after 48 hrs; format: functional
HOP-92 = test: Growth inhibition of human HOP92 cells at 10 uM after 48 hrs; format: functional
Bacillus subtilis = test: Antimicrobial activity against Bacillus subtilis assessed as inhibition zone at 200 ug/disk after 24 hrs by disc-diffusion method; format: functional; conditions: read-out: IZ
HT-29 = test: Growth inhibition of human HT-29 cells at 10 uM after 48 hrs; format: functional
SF-295 = test: Growth inhibition of human SF295 cells at 10 uM after 48 hrs; format: functional
A498 = test: Growth inhibition of human A498 cells at 10 uM after 48 hrs; format: functional
MDA-MB-468 = test: Growth inhibition of human MDA-MB-468 cells at 10 uM after 48 hrs; format: functional
Hs-578T = test: Growth inhibition of human Hs 578T cells at 10 uM after 48 hrs; format: functional
CAKI-1 = test: Growth inhibition of human CAKI-1 cells at 10 uM after 48 hrs; format: functional
CCRF-CEM = test: Growth inhibition of human CCRF-CEM cells at 10 uM after 48 hrs; format: functional
SK-MEL-28 = test: Growth inhibition of human SK-MEL-28 cells at 10 uM after 48 hrs; format: functional, cell-based
Escherichia coli = test: Antimicrobial activity against Escherichia coli assessed as inhibition zone at 200 ug/disk after 24 hrs by disc-diffusion method; format: functional; conditions: read-out: IZ
SF-539 = test: Growth inhibition of human SF539 cells at 10 uM after 48 hrs; format: functional
UACC-62 = test: (§5) Growth inhibition of human UACC62 cells at 10 uM after 48 hrs; format: functional
T47D = test: Growth inhibition of human T47D cells at 10 uM after 48 hrs; format: functional
NCI-H226 = test: Growth inhibition of human NCI-H226 cells at 10 uM after 48 hrs; format: functional
OVCAR-4 = test: (§6) Growth inhibition of human OVCAR4 cells at 10 uM after 48 hrs; format: functional
SNB-19 = test: Growth inhibition of human SNB19 cells at 10 uM after 48 hrs; format: functional
MDA-MB-435 = test: Growth inhibition of human MDA-MB-435 cells at 10 uM after 48 hrs; format: functional
UACC-257 = test: Growth inhibition of human UACC257 cells at 10 uM after 48 hrs; format: functional
RXF 393 = test: (§7) Growth inhibition of human RXF393 cells at 10 uM after 48 hrs; format: functional
PC-3 = test: (§8) Growth inhibition of human PC3 cells at 10 uM after 48 hrs; format: functional
UO-31 = test: Growth inhibition of human UO31 cells at 10 uM after 48 hrs; format: functional
Staphylococcus aureus = test: Antimicrobial activity against Staphylococcus aureus assessed as inhibition zone at 200 ug/disk after 24 hrs by disc-diffusion method; format: functional; conditions: read-out: IZ
Pseudomonas aeruginosa = test: Antimicrobial activity against Pseudomonas aeruginosa assessed as inhibition zone at 200 ug/disk after 24 hrs by disc-diffusion method; format: functional; conditions: read-out: IZ
Malme-3M = test: Growth inhibition of human MALME-3M cells at 10 uM after 48 hrs; format: functional
SR = test: Growth inhibition of human SR cells at 10 uM after 48 hrs; format: functional
Candida albicans = test: Antimicrobial activity against Candida albicans assessed as inhibition zone at 200 ug/disk after 24 hrs by disc-diffusion method; format: functional; conditions: read-out: IZ
[1] = as §1; format: functional; conditions: MOLT-4, 48 h, read-out: GI
[2] = as §2; format: functional; conditions: RPMI-8226, 48 h, read-out: GI
[3] = as §3; format: functional; conditions: HCT-116, 48 h, read-out: GI
[4] = as §4; format: functional; conditions: HCT-15, 48 h, read-out: GI
[5] = as §5; format: functional; conditions: UACC-62, 48 h, read-out: GI
[6] = as §6; format: functional; conditions: OVCAR-4, 48 h, read-out: GI
[7] = as §7; format: functional; conditions: RXF 393, 48 h, read-out: GI
[8] = as §8; format: functional; conditions: PC-3, 48 h, read-out: GI

COc1ccc(-n2c(Sc3nnc(N)s3)nc3ccc(C)cc3c2=O)cc1
growth inhibition (GI) (MOLT-4): inactive | growth inhibition (GI) (A549): inactive | growth inhibition (GI) (K562): inactive | IC50 (Dihydrofolate reductase): 3000 nM | growth inhibition (GI) (786-0): inactive | growth inhibition (GI) (MCF7): inactive | growth inhibition (GI) (U-251): inactive | growth inhibition (GI) (RPMI-8226): inactive | growth inhibition (GI) (HCT-116): inactive | growth inhibition (GI) (KM12): inactive | growth inhibition (GI) (MDA-MB-231): inactive | growth inhibition (GI) (HL-60(TB)): inactive | growth inhibition (GI) (SK-MEL-5): inactive | growth inhibition (GI) (HCT-15): inactive | growth inhibition (GI) (NCI-H522): inactive | growth inhibition (GI) (HOP-62): inactive | growth inhibition (GI) (HOP-92): inactive | zone of inhibition at 200 µg/disc (Bacillus subtilis): 8 mm | growth inhibition (GI) (HT-29): inactive | growth inhibition (GI) (SF-295): inactive | growth inhibition (GI) (A498): inactive | growth inhibition (GI) (MDA-MB-468): inactive | growth inhibition (GI) (Hs-578T): inactive | growth inhibition (GI) (CAKI-1): inactive | growth inhibition (GI) (CCRF-CEM): inactive | growth inhibition (GI) (SK-MEL-28): inactive | zone of inhibition at 200 µg/disc (Escherichia coli): 8 mm | growth inhibition (GI) (SF-539): inactive | growth inhibition (GI) (UACC-62): inactive | growth inhibition (GI) (T47D): inactive | growth inhibition (GI) (NCI-H226): inactive | growth inhibition (GI) (OVCAR-4): inactive | growth inhibition (GI) (SNB-19): inactive | growth inhibition (GI) (MDA-MB-435): inactive | growth inhibition (GI) (UACC-257): inactive | growth inhibition (GI) (RXF 393): inactive | growth inhibition (GI) (PC-3): inactive | growth inhibition (GI) (UO-31): inactive | zone of inhibition at 200 µg/disc (Staphylococcus aureus): 8 mm | zone of inhibition at 200 µg/disc (Pseudomonas aeruginosa): 8 mm | growth inhibition (GI) (Malme-3M): inactive | growth inhibition (GI) (SR): inactive | zone of inhibition at 200 µg/disc (Candida albicans): 8 mm

COc1cc2nc(Sc3nnc(N)s3)n(-c3ccc(Oc4ccccc4)cc3)c(=O)c2cc1OC
inhibition of growth at 10 µM [1]: 29.6% | inhibition of growth at 10 µM (A549; A549, 48 h, read-out: GI): 15.2% | inhibition of growth at 10 µM (K562; K562, 48 h, read-out: GI): 22.5% | IC50 (Dihydrofolate reductase): 600 nM | inhibition of growth at 10 µM (MCF7; MCF7, 48 h, read-out: GI): 14.8% | inhibition of growth at 10 µM [2]: 43.7% | inhibition of growth at 10 µM [3]: 11.5% | inhibition of growth at 10 µM (KM12; KM12, 48 h, read-out: GI): 20.7% | inhibition of growth at 10 µM (HL-60(TB); HL-60, 48 h, read-out: GI): 11.2% | inhibition of growth at 10 µM (SK-MEL-5; SK-MEL-5, 48 h, read-out: GI): 28.2% | inhibition of growth at 10 µM [4]: 21.4% | growth inhibition (GI) (NCI-H522): inactive | zone of inhibition at 200 µg/disc (Bacillus subtilis): 8 mm | inhibition of growth at 10 µM (HT-29; HT-29, 48 h, read-out: GI): 17.6% | inhibition of growth at 10 µM (A498; A498, 48 h, read-out: GI): 19.3% | inhibition of growth at 10 µM (MDA-MB-468; MDA-MB-468, 48 h, read-out: GI): 22.6% | inhibition of growth at 10 µM (CCRF-CEM; read-out: GI): 11.2% | zone of inhibition at 200 µg/disc (Escherichia coli): 8 mm | inhibition of growth at 10 µM [5]: 22.1% | inhibition of growth at 10 µM (T47D; read-out: GI): 38.4% | inhibition of growth at 10 µM (NCI-H226; NCI-H226, 48 h, read-out: GI): 13.4% | inhibition of growth at 10 µM [6]: 34.6% | inhibition of growth at 10 µM [7]: 10.7% | inhibition of growth at 10 µM [8]: 23.2% | growth inhibition (GI) (UO-31): inactive | zone of inhibition at 200 µg/disc (Staphylococcus aureus): 8 mm | zone of inhibition at 200 µg/disc (Pseudomonas aeruginosa): 8 mm | inhibition of growth at 10 µM (SR; read-out: GI): 57.3% | zone of inhibition at 200 µg/disc (Candida albicans): 8 mm
